Measurements from patent US6737383B1, “Herbicidal oxadiazolidines” (priority 1999, dated 2004).

How the values were obtained:
bedstraw = test: Test B pre/postemergence bedstraw; format: in vivo, Galium aparine
Outline: (§1)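 Response is a visual 0-to-10 score relative to untreated plants, where 0 means no effect and 10 means complete control, taken twelve to sixteen days after application. Treatments went onto soil at planting and onto foliage of 1- to 4-leaf plants, using a surfactant-containing non-phytotoxic solvent.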

blackgrass = test: Test B pre/postemergence blackgrass; format: in vivo, Alopecurus myosuroides
Outline: as §1

surinam grass = test: Test B pre/postemergence surinam grass; format: in vivo, Brachiaria decumbens
Outline: as §1

cocklebur = test: Test B pre/postemergence cocklebur; format: in vivo, Xanthium strumarium
Outline: as §1

corn = test: Test B pre/postemergence corn; format: in vivo, Zea mays
Outline: as §1

crabgrass = test: Test B pre/postemergence crabgrass; format: in vivo, Digitaria sanguinalis
Outline: as §1

giant foxtail = test: Test B pre/postemergence giant foxtail; format: in vivo, Setaria faberii
Outline: as §1

morningglory = test: Test B pre/postemergence morningglory; format: in vivo, Ipomoea hederacea
Outline: as §1

pigweed = test: Test B pre/postemergence pigweed; format: in vivo, Amaranthus retroflexus
Outline: as §1

rape = test: Test B pre/postemergence rape; format: in vivo, Brassica napus
Outline: as §1

soybean = test: Test B pre/postemergence soybean; format: in vivo, Glycine max
Outline: as §1

sugar beet = test: Test B pre/postemergence sugar beet; format: in vivo, Beta vulgaris
Outline: as §1

velvetleaf = test: Test B pre/postemergence velvetleaf; format: in vivo, Abutilon theophrasti
Outline: as §1

wheat = test: Test B pre/postemergence wheat; format: in vivo, Triticum aestivum
Outline: as §1

wild oat = test: Test B pre/postemergence wild oat; format: in vivo, Avena fatua
Outline: as §1

purple nutsedge = test: Test B pre/postemergence purple nutsedge; format: in vivo, Cyperus rotundus
Outline: as §1

[1] = Postemergence, Rate 125 g/ha, scale of 0 to 10 where 0 is no effect and 10 is complete control
[2] = Preemergence, Rate 125 g/ha, scale of 0 to 10 where 0 is no effect and 10 is complete control
[3] = Preemergence, Rate 250 g/ha, scale 0 (no effect) to 10 (complete control)
[4] = Rate 62 g/ha, Preemergence, scale 0 to 10
[5] = Rate 250 g/ha, Postemergence, scale 0 to 10, 0 is no effect, 10 is complete control
[6] = Rate 500 g/ha, Postemergence, scale 0 to 10, 0 is no effect, 10 is complete control
[7] = Rate 500 g/ha, Preemergence, scale 0 to 10 (0 no effect, 10 complete control)
[8] = Postemergence, Rate 62 g/ha, scale 0 to 10, 0 is no effect, 10 is complete control

`CC(C)N(C(=O)n1oc(=O)n(CCN(C)C(=O)c2ccccc2)c1=O)c1ccccc1` [Compound 761] was tested, and the “Bedstraw plant response rating” value (bedstraw; [1]) was 0, the “Plant response rating, Bedstraw” value (bedstraw; [2]) was 0 and the “Bedstraw plant response rating” value (bedstraw; [3]) was 0. For the same compound, the “Bedstraw plant response rating” value (bedstraw; [4]) was 0, the “Bedstraw plant response rating” value (bedstraw; [5]) was 0 and the “Bedstraw plant response rating” value (bedstraw; [6]) was 3. The “Bedstraw plant response rating” value (bedstraw; [7]) was 0, the “Plant response rating, Blackgrass” value (blackgrass; [8]) was 0 and the “Blackgrass plant response rating” value (blackgrass; [1]) was 0. The “Plant response rating, Blackgrass” value (blackgrass; [2]) was 0, the “Blackgrass plant response rating” value (blackgrass; [3]) was 0 and the “Blackgrass plant response rating” value (blackgrass; [4]) was 0. The “Blackgrass plant response rating” value (blackgrass; [5]) was 0, the “Blackgrass plant response rating” value (blackgrass; [6]) was 0 and the “Blackgrass plant response rating” value (blackgrass; [7]) was 0. The “Plant response rating, B. signalgrass” value (surinam grass; [8]) was 0, the “B. signalgrass plant response rating” value (surinam grass; [1]) was 0 and the “B. signalgrass plant response rating” value (surinam grass; Preemergence, Rate 62 g/ha, scale of 0 to 10 where 0 is no effect and 10 is complete control) was 0. The “Plant response rating, B. signalgrass” value (surinam grass; [2]) was 0, the “B. signalgrass plant response rating” value (surinam grass; [3]) was 0 and the “B. signalgrass plant response rating” value (surinam grass; [5]) was 3. For the same compound, the “B. signalgrass plant response rating” value (surinam grass; [6]) was 3, the “B. signalgrass plant response rating” value (surinam grass; [7]) was 3 and the “Plant response rating, Cocklebur” value (cocklebur; [8]) was 0. The “Cocklebur plant response rating” value (cocklebur; [1]) was 0, the “Plant response rating, Cocklebur” value (cocklebur; [2]) was 0 and the “Cocklebur plant response rating” value (cocklebur; [3]) was 0. For the same compound, the “Cocklebur plant response rating” value (cocklebur; [4]) was 0, the “Cocklebur plant response rating” value (cocklebur; [5]) was 0 and the “Cocklebur plant response rating” value (cocklebur; [6]) was 0. For the same compound, the “Cocklebur plant response rating” value (cocklebur; [7]) was 0, the “Plant response rating, Corn” value (corn; [8]) was 0 and the “Corn plant response rating” value (corn; [1]) was 0. For the same compound, the “Plant response rating, Corn” value (corn; [2]) was 0, the “Corn plant response rating” value (corn; [3]) was 0 and the “Corn plant response rating” value (corn; [4]) was 0. The “Corn plant response rating” value (corn; [5]) was 0, the “Corn plant response rating” value (corn; [6]) was 0 and the “Corn plant response rating” value (corn; [7]) was 0. The “Plant response rating, Crabgrass” value (crabgrass; [2]) was 3, the “Crabgrass plant response rating” value (crabgrass; [3]) was 5 and the “Crabgrass plant response rating” value (crabgrass; [4]) was 3. For the same compound, the “Crabgrass plant response rating” value (crabgrass; [5]) was 0, the “Crabgrass plant response rating” value (crabgrass; [6]) was 0 and the “Crabgrass plant response rating” value (crabgrass; [7]) was 3. For the same compound, the “Plant response rating, Giant foxtail” value (giant foxtail; [8]) was 0, the “Giant foxtail plant response rating” value (giant foxtail; [1]) was 0 and the “Plant response rating, Giant foxtail” value (giant foxtail; [2]) was 0. For the same compound, the “Giant foxtail plant response rating” value (giant foxtail; [3]) was 8, the “Giant foxtail plant response rating” value (giant foxtail; [4]) was 0 and the “Giant foxtail plant response rating” value (giant foxtail; [6]) was 3. For the same compound, the “Giant foxtail plant response rating” value (giant foxtail; [7]) was 9, the “Plant response rating, Morningglory” value (morningglory; [8]) was 0 and the “Morningglory plant response rating” value (morningglory; [1]) was 6. For the same compound, the “Plant response rating, Morningglory” value (morningglory; [2]) was 0, the “Morningglory plant response rating” value (morningglory; [3]) was 0 and the “Morningglory plant response rating” value (morningglory; [4]) was 0. The “Morningglory plant response rating” value (morningglory; [5]) was 7, the “Morningglory plant response rating” value (morningglory; [7]) was 0 and the “Plant response rating, Redroot pigweed” value (pigweed; [8]) was 0. The “Plant response rating, Redroot pigweed” value (pigweed; [2]) was 0, the “Redroot pigweed plant response rating” value (pigweed; [3]) was 0 and the “Redroot pigweed plant response rating” value (pigweed; [4]) was 0. For the same compound, the “Redroot pigweed plant response rating” value (pigweed; [5]) was 6, the “Redroot pigweed plant response rating” value (pigweed; [6]) was 6 and the “Redroot pigweed plant response rating” value (pigweed; [7]) was 0. For the same compound, the “Plant response rating, Rape” value (rape; [8]) was 0, the “Rape plant response rating” value (rape; [1]) was 0 and the “Plant response rating, Rape” value (rape; [2]) was 0. The “Rape plant response rating” value (rape; [3]) was 0, the “Rape plant response rating” value (rape; [4]) was 0 and the “Rape plant response rating” value (rape; [5]) was 0. For the same compound, the “Rape plant response rating” value (rape; [6]) was 0, the “Rape plant response rating” value (rape; [7]) was 0 and the “Plant response rating, Soybean” value (soybean; [8]) was 2. The “Plant response rating, Soybean” value (soybean; [2]) was 0, the “Soybean plant response rating” value (soybean; [3]) was 0 and the “Soybean plant response rating” value (soybean; [4]) was 0. The “Soybean plant response rating” value (soybean; [5]) was 3, the “Soybean plant response rating” value (soybean; [6]) was 3 and the “Soybean plant response rating” value (soybean; [7]) was 0. The “Plant response rating, Sugarbeets” value (sugar beet; [8]) was 2, the “Plant response rating, Sugarbeets” value (sugar beet; [2]) was 0 and the “Sugarbeets plant response rating” value (sugar beet; [3]) was 0. The “Sugarbeets plant response rating” value (sugar beet; [4]) was 0, the “Sugarbeets plant response rating” value (sugar beet; [5]) was 3 and the “Sugarbeets plant response rating” value (sugar beet; [6]) was 6. For the same compound, the “Sugarbeets plant response rating” value (sugar beet; [7]) was 0, the “Plant response rating, Velvetleaf” value (velvetleaf; [8]) was 0 and the “Plant response rating, Velvetleaf” value (velvetleaf; [2]) was 0. For the same compound, the “Velvetleaf plant response rating” value (velvetleaf; [3]) was 0, the “Velvetleaf plant response rating” value (velvetleaf; [4]) was 0 and the “Velvetleaf plant response rating” value (velvetleaf; [5]) was 0. The “Velvetleaf plant response rating” value (velvetleaf; [6]) was 0, the “Velvetleaf plant response rating” value (velvetleaf; [7]) was 0 and the “Plant response rating, Wheat” value (wheat; [8]) was 0. The “Plant response rating, Wheat” value (wheat; [2]) was 0, the “Wheat plant response rating” value (wheat; [3]) was 0 and the “Wheat plant response rating” value (wheat; [4]) was 0. For the same compound, the “Wheat plant response rating” value (wheat; [5]) was 0, the “Wheat plant response rating” value (wheat; [6]) was 0 and the “Wheat plant response rating” value (wheat; [7]) was 0. For the same compound, the “Plant response rating, Wild oats” value (wild oat; [8]) was 0, the “Plant response rating, Wild oats” value (wild oat; [2]) was 0 and the “Wild oats plant response rating” value (wild oat; [3]) was 0. The “Wild oats plant response rating” value (wild oat; [4]) was 0, the “Wild oats plant response rating” value (wild oat; [5]) was 0 and the “Wild oats plant response rating” value (wild oat; [6]) was 0. The “Wild oats plant response rating” value (wild oat; [7]) was 0, the “Plant response rating, Nutsedge” value (purple nutsedge; [8]) was 0 and the “Nutsedge plant response rating” value (purple nutsedge; [1]) was 0. For the same compound, the “Plant response rating, Nutsedge” value (purple nutsedge; [2]) was 0, the “Nutsedge plant response rating” value (purple nutsedge; [3]) was 0 and the “Nutsedge plant response rating” value (purple nutsedge; [4]) was 0. For the same compound, the “Nutsedge plant response rating” value (purple nutsedge; [5]) was 0, the “Nutsedge plant response rating” value (purple nutsedge; [6]) was 0 and the “Nutsedge plant response rating” value (purple nutsedge; [7]) was 0.
